Several values for one entry are separate records, joined by “and”; a condition that tells them apart may be missing. Identical values can stand only once. Entries after “also recorded” stand apart in the source; their conditions may differ.
Key:
MCF-7 tumors [1] = experiment: HPLC quantification of tamoxifen and cis/trans-4-hydroxytamoxifen ratio in MCF-7 tumors from tamoxifen-treated mice (total tumor, nuclear pellet, KCl nuclear extract); type: in vivo; details: for Mean 4-OH-TAM cis/trans ratio: p < 0.0005
Protocol: In order to examine the relationship between tamoxifen metabolites and tamoxifen resistance, athymic Balb/c nude mice were implanted with human breast cancer tumor cells (MCF-7). Mice were treated daily for 4-6 months with subcutaneous tamoxifen. After tamoxifen resistance developed and tumor progression was observed, mice were sacrificed, and tumors were collected. In addition, tamoxifen-sensitive tumors were collected from mice still responding to tamoxifen therapy.
Quantification of tamoxifen and its metabolites in tumor specimens was performed using photactivation and high performance liquid chromatography (HPLC) analysis. To summarize: Each tumor sample was weighed, spiked with an internal standard, and homogenized. Tissue samples were then extracted with 2% n-butanol in hexane and irradiated with high intensity ultraviolet light (254 nm). […] All solvents were of HPLC grade. Fluorescence of all compounds was measured at a wavelength of 266 nm. […] In some samples, the tumor was first homogenized and then the nuclear pellet obtained by centrifugation. HPLC tamoxifen measurements were made on extracts of the entire tumor specimen or on subcellular fractions including the cytosol or-the total nuclear pellet. In some cases, the nuclear pellet was further extracted in 0.4M KCl to extract primary metabolites bound to estrogen receptor.
The material extracted with KCl includes that bound to estrogen receptor.

human tumor specimens = experiment: HPLC of tamoxifen and 4-OH-TAM isomers in tumors of tamoxifen-treated patients (Example 2); type: in vivo; details: for cis versus trans 4-OH-TAM in tumor nuclear pellets: patients with clinically-evident tumor resistance, FIG. 8
Protocol: Quantification of tamoxifen and its metabolites in tumor specimens was performed using photactivation and high performance liquid chromatography (HPLC) analysis. To summarize: Each tumor sample was weighed, spiked with an internal standard, and homogenized. Tissue samples were then extracted with 2% n-butanol in hexane and irradiated with high intensity ultraviolet light (254 nm). Samples were analyzed by HPLC using a C-18 reverse phase column and eluted isocratically with a mobile phase of water (7%) and triethylamine (0.25%) in methanol. All solvents were of HPLC grade. Fluorescence of all compounds was measured at a wavelength of 266 nm. […] In some samples, the tumor was first homogenized and then the nuclear pellet obtained by centrifugation. HPLC tamoxifen measurements were made on extracts of the entire tumor specimen or on subcellular fractions including the cytosol or-the total nuclear pellet. In some cases, the nuclear pellet was further extracted in 0.4M KCl to extract primary metabolites bound to estrogen receptor.
1) identification and measurement of tamoxifen and its metabolites in tumors isolated from tamoxifen-treated patients who are known treatment failures;
There are two tamoxifen-sensitive tumors (L281 and G375) for comparison because patients responding to treatment are not usually biopsied during the responsive phase of their disease.

[2] = HPLC of tamoxifen and metabolites in MCF-7 mouse tumors (Example 3); details: mouse, mcf-7 tumor, 500 ug/day
Description: (§1) Human breast tumors from various patients who failed tamoxifen therapy (20 mgs/day>one year) were obtained from the Breast Cancer Tumor Bank. A portion of the tumor was extracted, irradiated and analyzed by Mass Spectrometry (procedure described below). Tumor tissue was also obtained from an in vivo nude mouse model of acquired tamoxifen resistance. MCF-7 human breast tumors were harvested from nude mice after the development of tamoxifen resistance (4-6 months of tamoxifen administration, 500 ug/day). These tissues were frozen at -20° C. until analysis. Frozen tissue samples were weighed, homogenized, and extracted. Briefly, all samples were extracted with 6.0 ml of 2% butanol in hexane, vortexed for 1.0 min, and then centrifuged for 10 min at 1000×g. The organic phase was dried under N2 gas at 37° C. and reconstituted in 200 μl methanol prior to injection. The reconstituted samples were transferred to a Infrasil quartz cuvette (Fisher Scientific), irradiated for one minute with a 15 W Hg vapor lamp and injected onto a HPLC column.
(§2) The HPLC system consisted of a Beckman model 320 gradient liquid chromatograph, two model 110A pumps, and a model 420 controller. The HPLC was equipped with a reverse phase Altex C18 ultrasphere ODS column and a 100 μl injection loop. […] The flow rate of the mobil phase was set at 0.5 ml/min. The fluorescence of photochemically activated compounds was detected with an Applied Biosystems 980 fluorometer with excitation wavelength set at 266 nm. Retention times and peak heights were recorded with a Spectraphysics 4100 integrator.

MCF-7 tumors [3] = experiment: as above; details: for Presence in MCF-7 tamoxifen resistant mouse tumor: HPLC, FIG. 13
Description: as §1, §2

[4] = in vivo; cited from earlier work
T47D human breast cell = details: cited from earlier work
[5] = in vitro; cited from earlier work
human breast tumors = experiment: HPLC and mass spectrometry of tamoxifen metabolites in human breast tumors failing tamoxifen (Example 3); type: in vivo; details: HPLC / EI-MS
Description: as §1
The HPLC system consisted of a Beckman model 320 gradient liquid chromatograph, two model 110A pumps, and a model 420 controller. The HPLC was equipped with a reverse phase Altex C18 ultrasphere ODS column and a 100 μl injection loop. The mobil phase consisted of 7% H2 O and […] triethylamine in methanol. The flow rate of the mobil phase was set at 0.5 ml/min. The fluorescence of photochemically activated compounds was detected with an Applied Biosystems 980 fluorometer with excitation wavelength set at 266 nm. Retention times and peak heights were recorded with a Spectraphysics 4100 integrator.
Non-irradiated samples were also injected onto the HPLC column and fractions were collected every minute. Fractionations corresponding to the retention times noted for the bisphenol and monophenol tamoxifen were further evaluated using mass-Spectrometry. The mass spectrometric behavior of the mono and bis phenols under electron impact ionization mass-spectrometry (EI-MS) was utilized. HPLC separated samples, in glass vials, were extracted with methanol, injected into glass capillaries and dried. Samples were introduced via a direct insertion probe. Spectra were recorded at 70 eV over the mass range of 70-500 at 10 seconds per decade with a resolution of 1000. The probe was heated in stages to 200° C.

[6] = cited from earlier work
[7] = resistant MCF-7 mouse tumors, N = 10 (N-DES 9, monophenol 8)
[8] = sensitive MCF-7 mouse tumors, N = 6 (bisphenol 5)

## CCC(=C(c1ccc(O)cc1)c1ccc(OCCN(C)C)cc1)c1ccccc1 [4-OH-TAM, 4-hydroxytamoxifen]
MCF-7 tumors [1]; resistant MCF-7 tumors (N = 16)
  Cis/trans 4-OH-TAM ratio, individual tumor: 0.86 and 0.812 and 0.442 and 0.929 and 1.019 and 0.777 and 1.073 and 0.49 and 0.724 and 0.868 and 0.59 and 0.73 and 1.16 and 0.76 and 0.932
MCF-7 tumors [1]; resistant tumor, FIG. 7
  cis 4-OH-TAM/trans-4-OH-TAM ratio in KCl-extracted nuclear pellets compared with other fractions: larger in the nuclear pellets extracted with KCl
MCF-7 tumors [1]; resistant tumors
  C/T-OH-TAM ratio (summary): 0.8-0.9
  Median cis/trans 4-OH-TAM ratio: 0.84
  Number of tumors with cis/trans ratio > 0.60: 13/16
  Number of tumors with cis/trans ratio ≤ 0.60: 3/16
  Range of cis/trans 4-OH-TAM ratio: 0.442-1.16
MCF-7 tumors [1]; resistant tumors, SD = 0.196
  Mean 4-OH-TAM cis/trans ratio: 0.8141
MCF-7 tumors [1]; resistant vs sensitive
  cis/trans 4-OH-TAM ratio, resistant compared with sensitive tumors: higher cis/trans ratios; also recorded: increase; also recorded: lower in sensitive than in resistant tumors; also recorded: the cis/trans ratio is higher in the resistant tumor
MCF-7 tumors [1]; sensitive MCF-7 tumors (N = 16)
  Cis/trans 4-OH-TAM ratio, individual tumor: 0.575 and 0.588 and 0.472 and 0.56 and 0.645 and 0.428 and 0.446 and 0.4632 and 0.476 and 0.506 and 0.34 and 0.486 and 0.38 and 1.0 and 0.77
MCF-7 tumors [1]; sensitive tumors
  C/T-OH-TAM ratio (summary): 0.4-0.5
  Median cis/trans 4-OH-TAM ratio: 0.48
  Number of tumors with cis/trans ratio > 0.60: 3/16
  Number of tumors with cis/trans ratio ≤ 0.60: 13/16
  Range of cis/trans 4-OH-TAM ratio: 0.34-1.0
MCF-7 tumors [1]; sensitive tumors, SD = 0.168
  Mean 4-OH-TAM cis/trans ratio: 0.5297
Human tumor specimens
  cis versus trans 4-OH-TAM in tumor nuclear pellets: greater cis than trans levels
Human tumor specimens; tamoxifen-resistant patients' tumors, majority
  cis/trans ratios in total tumor extract: relatively high cis/trans ratios in the total tumor extract
Human tumor specimens; two tumors from tamoxifen-sensitive patients
  cis/trans ratios: low cis/trans ratios

## CCC(=C(c1ccccc1)c1ccc(OCCNC)cc1)c1ccccc1 [N-desmethyltamoxifen]
[2]
  concentration at 4380 h: 135 ng/g
MCF-7 tumors [3]; resistant MCF-7 mouse tumors
  Tamoxifen and metabolite concentrations, individual animal: 19.65 .eta.g/g tissue and 68.12 .eta.g/g tissue and 38.44 .eta.g/g tissue and 135.44 .eta.g/g tissue and 50.27 .eta.g/g tissue and 65.70 .eta.g/g tissue and 127.29 .eta.g/g tissue and 100.43 .eta.g/g tissue
MCF-7 tumors [3]; [7]
  Tamoxifen and metabolite concentrations, mean (X): 71.28 .eta.g/g tissue
MCF-7 tumors [3]; sensitive MCF-7 mouse tumors
  Tamoxifen and metabolite concentrations, individual animal: 124.70 .eta.g/g tissue and 331.82 .eta.g/g tissue and 534.62 .eta.g/g tissue and 5.95 .eta.g/g tissue and 322.99 .eta.g/g tissue and 359.67 .eta.g/g tissue
MCF-7 tumors [3]; [8]
  Tamoxifen and metabolite concentrations, mean (X): 279.95 .eta.g/g tissue
[4]
  Occurrence in human serum: major metabolite found in human serum

## CC/C(=C(\c1ccccc1)c1ccc(O)cc1)c1ccccc1 [Trans-metabolite E]
T47D human breast cell
  Estrogen agonist activity of metabolite E isomers: weak partial agonist
[5]
  Isomerization to cis metabolite E: demonstrated in vitro

## CCC(=C(c1ccc(O)cc1)c1ccc(O)cc1)c1ccccc1 [bisphenol]
Human breast tumors
  Presence in human breast cancer tissue: the presence of bisphenol could not be confirmed
Human breast tumors; listed as bisphenoltamoxifen
  Presence in human breast cancer tissue: also present in these patients
MCF-7 tumors [3]
  Presence in MCF-7 tamoxifen resistant mouse tumor: A very small peak was evident at a retention time similar to bisphenol
MCF-7 tumors [3]; resistant MCF-7 mouse tumors
  Tamoxifen and metabolite concentrations, individual animal: 15.12 .eta.g/g tissue and 18.34 .eta.g/g tissue and 4.26 .eta.g/g tissue and 3.93 .eta.g/g tissue and 32.75 .eta.g/g tissue and 9.77 .eta.g/g tissue and 43.87 .eta.g/g tissue and 52.72 .eta.g/g tissue and 23.38 .eta.g/g tissue
MCF-7 tumors [3]; [7]
  Tamoxifen and metabolite concentrations, mean (X): 21.33 .eta.g/g tissue
MCF-7 tumors [3]; sensitive MCF-7 mouse tumors
  Tamoxifen and metabolite concentrations, individual animal: 44.27 .eta.g/g tissue and 33.90 .eta.g/g tissue and 39.80 .eta.g/g tissue and 1491.44 .eta.g/g tissue and 352.76 .eta.g/g tissue
MCF-7 tumors [3]; [8]
  Tamoxifen and metabolite concentrations, mean (X): 392.43 .eta.g/g tissue

## CC/C(=C(/c1ccc(O)cc1)c1ccc(OCCN(C)C)cc1)c1ccccc1 [cis 4-hydroxytamoxifen]
Human tumor specimens
  cis versus trans 4-OH-TAM in tumor nuclear pellets: higher cis 4-OH-TAM in the nuclear pellets

## CC/C(=C(/c1ccccc1)c1ccc(O)cc1)c1ccccc1 [cis-metabolite E]
T47D human breast cell
  Estrogen agonist activity of metabolite E isomers: potent estrogen agonist
  Stimulation of T47D human breast cell growth: more potent than bisphenol

## CCC(=C(c1ccc(O)cc1)c1ccc(OCCNC)cc1)c1ccccc1 [metabolite Bx]
Human breast tumors
  Presence in human breast cancer tissue: Peaks were also noted
MCF-7 tumors [3]
  Presence in MCF-7 tamoxifen resistant mouse tumor: noted on the chromatogram

## CCC(=C(c1ccccc1)c1ccc(OCCN)cc1)c1ccccc1 [metabolite Z, didesmethyltamoxifen]
Human breast tumors
  Presence in human breast cancer tissue: Peaks were also noted

## CCC(=C(c1ccccc1)c1ccc(O)cc1)c1ccccc1 [monophenol]
Human breast tumors
  Presence in human breast cancer tissue: confirmed the presence of monophenol
Human breast tumors; listed as monophenoltamoxifen
  Presence in human breast cancer tissue: present in tumors isolated from patients who failed tamoxifen therapy
[2]
  concentration at 4380 h: 22 ng/g
MCF-7 tumors [3]; resistant MCF-7 mouse tumors
  Tamoxifen and metabolite concentrations, individual animal: 24.30 .eta.g/g tissue and 9.63 .eta.g/g tissue and 21.99 .eta.g/g tissue and 20.66 .eta.g/g tissue and 232.66 .eta.g/g tissue and 47.82 .eta.g/g tissue and 27.13 .eta.g/g tissue
MCF-7 tumors [3]; [7]
  Tamoxifen and metabolite concentrations, mean (X): 49.35 .eta.g/g tissue
MCF-7 tumors [3]; sensitive MCF-7 mouse tumors
  Tamoxifen and metabolite concentrations, individual animal: 7.69 .eta.g/g tissue and 109.07 .eta.g/g tissue and 160.99 .eta.g/g tissue and 37.72 .eta.g/g tissue and 265.25 .eta.g/g tissue and 137.93 .eta.g/g tissue
MCF-7 tumors [3]; [8]
  Tamoxifen and metabolite concentrations, mean (X): 119.78 .eta.g/g tissue
[6]; dog, in vivo
  Presence in dog bile: isolated from the bile of dogs
[6]; dogs
  Share of radiolabeled compounds present in bile: approximately 6%

## CC/C(=C(\c1ccc(O)cc1)c1ccc(OCCN(C)C)cc1)c1ccccc1 [trans 4-hydroxytamoxifen]
Human tumor specimens; pellet (KCl nuclear extract), nd = not detectable, listed as 40H trans
  40H trans peak height: 1024 and 1194
